Data on 1 substance can be found in patent publication US6960343B2, “Toll/interleukin-1 receptor adapter protein (TIRAP)” (Yale University School of Medicine, priority 2001, dated 2005).

The test system of one test is IL-6. The test is described as follows: IL-6 production by dendritic cells. The format is cell-based, mice. Particulars: DCs. The method, then:
(§1) (A) Wild-type and MyD88^−/− dendritic cells (DCs) were induced with LPS or CpG and analyzed for expression of the costimulatory molecules B7.1 and […] flow cytometry. (B) Production of the cytokines, IL-12 and IL-6, was measured in cells that were untreated (none) or treated with LPS or CpG in the presence or absence of TIRAP peptide. (C) T cell proliferation was measured in wild-type DCs that were untreated (none), treated with LPS alone (LPS), or treated with LPS in the presence of increasing amounts of TIRAP peptide (LPS+TIRAP peptide). T cell proliferation was measured by incorporation of ^3H-thymidine into cells, expressed as cpm×10^3.
(§2) To determine the effects of the TIRAP peptide on cytokine production, DCs were treated with or without TIRAP peptide prior to stimulation with LPS or CpG (as described above), and the production of IL-12 and IL-6 was measured. Addition of TIRAP peptide inhibited production of IL-12 and IL-6 cytokines in response to stimulation with LPS, but not CpG (FIG. 6B).

Test [1] deals with 1H3.1 TCR transgenic T cells. Briefly: CD4 T cell proliferation stimulated by DCs, 3H-thymidine incorporation. In kind it is cell-based. Particulars: DCs from wild-type or MyD88-deficient mice, LPS, Eα peptide, 48 h culture. The method, then:
as §1
Lastly, the effect of TIRAP peptide on T cell proliferation was evaluated. Stimulation of CD4 T cell proliferation by DCs treated with or without TIRAP peptide prior to stimulation with LPS was performed in the presence of varying concentrations of Eα peptide. DCs were fixed prior to incubation with 1H3.1 TCR transgenic T cells (specific for Eα peptide bound to I-A). Proliferation was measured by ^3H-thymidine incorporation for the last 24 h of a 48 h culture.

Another test concerns JNK. The test is described as follows: JNK phosphorylation in RAW cells, immunoblot. In kind it is cell-based. Particulars: 40 μM peptide. The method, then:
(§3) FIG. 5, comprising FIGS. 5A through 5D, is a series of blots depicting inhibition of LPS- but not CpG-induced NF-κB activation, PKR phosphorylation, and JNK phosphorylation by TIRAP. (A) TIRAP peptide, but not a reverse sequence peptide, inhibited LPS-induced NF-κB activation. RAW κB cells pretreated for 1 h with either the TIRAP or control peptide were stimulated with LPS (10 ng/ml) for 5 h. Samples were stimulated in duplicate. (B) Pretreatment of RAW cells with TIRAP peptide blocks LPS-induced IκB-α degradation. RAW cells pretreated with the TIRAP peptide as indicated were either left unstimulated or stimulated with LPS (10 ng/ml) for the indicated time periods. […] Lysates (30 μg/sample) were analyzed by SDS-PAGE followed by immunoblotting with antibodies that specifically recognize phosphorylated PKR or phosphorylated JNK.
(§4) To determine whether a TIRAP mutant peptide inhibits PKR and JNK phosphorylation induced by LPS or CpG, RAW cells either untreated or pretreated with 40 μM of the TIRAP peptide were either left unstimulated or stimulated with either LPS (10 ng/ml) or CpG (10 μM) for the indicated time periods before harvest and lysis. Lysates (30 μg/sample) were analyzed by SDS-PAGE followed by immunoblotting with antibodies that specifically recognize phosphorylated PKR and JNK.

The next test deals with IκB-α. The test is described as follows: IκB-α degradation in RAW cells, immunoblot. In kind it is cell-based. The method, then: (§5) FIG. 5, comprising FIGS. 5A through 5D, is a series of blots depicting inhibition of LPS- but not CpG-induced NF-κB activation, PKR phosphorylation, and JNK phosphorylation by TIRAP. (A) TIRAP peptide, but not a reverse sequence peptide, inhibited LPS-induced NF-κB activation. RAW κB cells pretreated for 1 h with either the TIRAP or control peptide were stimulated with LPS (10 ng/ml) for 5 h. Samples were stimulated in duplicate. (B) Pretreatment of RAW cells with TIRAP peptide blocks LPS-induced IκB-α degradation. RAW cells pretreated with the TIRAP peptide as indicated were either left unstimulated or stimulated with LPS (10 ng/ml) for the indicated time periods. Lysates (30 μg/sample) were resolved by SDS-PAGE followed by immunoblotting with an anti-IκB-α antibody to assess IκB-α degradation. (C) TIRAP peptide inhibited LPS- but not CpG-induced NF-κB activity. RAW κB cells pretreated with the TIRAP peptide as indicated were stimulated with either LPS or CpG and harvested for reporter assay. (D) TIRAP peptide inhibited PKR and JNK phosphorylation induced by LPS but not CpG. RAW cells either untreated or pretreated with 40 μM of the TIRAP peptide were stimulated with either LPS or CpG as indicated. Lysates (30 μg/sample) were analyzed by SDS-PAGE followed by immunoblotting with antibodies that specifically recognize phosphorylated PKR or phosphorylated JNK. […]

A further test deals with IL-12. Briefly: IL-12 production by dendritic cells. The format is cell-based, mice. Particulars: DCs. Here is the method:
as §1, §2

The test system of the next test is dendritic cells (DCs). The test is described as follows: Dendritic cell maturation, flow cytometry of costimulatory molecules B7.1 and B7.2. The format is cell-based, mice. Particulars: peptide 10 μM. Here is the method: as §1
In view of the important role for TIRAP in mediating LPS-responsiveness in macrophages, the role of TIRAP in LPS-induced DC maturation was investigated. TIRAP is likely to be critical in these events because MyD88-deficient DCs retain the ability to upregulate costimulatory molecules in response to LPS stimulation (Kaisho 2001). To determine the effect of TIRAP on the expression of the costimulatory molecules B7.1 and B7.2, flow cytometry was performed on wild type and MyD88-/-DC. DCs were either unstimulated (shaded), stimulated with LPS (10 ng/ml) or CpG (10 μM) (black line), or pretreated with TIRAP peptide (10 μM) prior to stimulation with LPS or CpG (dashed line). […]

A further test has as its system PKR. The test is described as follows: PKR phosphorylation in RAW cells, immunoblot. In kind it is cell-based. Particulars: 40 μM peptide. The method, then:
as §3, §4

Another test relates to NF-κB. Briefly: NF-κB-dependent luciferase reporter assay in RAW κB macrophage cell line. The format is cell-based. Particulars: RAW κB cells. The method, then:
as §5

As for “TIRAP peptide: synthetic peptide corresponding to the P125 region of mTIRAP linked to the C-terminus of a peptide derived from antennapedia (RQIKIWFQNRRMKWKKLQLRDAAPGGAIVS; TIRAP/Antennapedia fusion protein)”, the “production of IL-6 in response to CpG” value in the test on IL-6 (peptide before CpG stimulation) is “not CpG”. Further, the “production of IL-6 in response to LPS” value with IL-6 (peptide before LPS stimulation) is “inhibited”. Besides, in test [1], the “T cell proliferation induced by peptide-treated DCs” value is “unable to induce T cell proliferation”. In the test on JNK (CpG), the “inhibition of JNK phosphorylation induced by CpG” value is reported as “not CpG”. Moreover, in the test on JNK (LPS), the “inhibition of JNK phosphorylation induced by LPS” value was “inhibited”. Moreover, the “LPS-induced IκB-α degradation” value in the test on IκB-α (1 hour pretreatment with 40 μM peptide, LPS 10 ng/ml) is reported as “did not induce IκB-α degradation”. The “inhibition of CpG-induced IκB-α degradation” value with IκB-α (CpG) is listed as “did not inhibit”. In the test on IL-12 (peptide before CpG stimulation), the “production of IL-12 in response to CpG” value is recorded as “not CpG”. The “production of IL-12 in response to LPS” value with IL-12 (peptide before LPS stimulation) is listed as “inhibited”. In addition, the “CpG-induced DC maturation” value in the test on dendritic cells (DCs) (DCs, CpG 10 μM) was “no effect”. Besides, the “LPS-induced upregulation of B7.1 and B7.2 molecules” value in the test on dendritic cells (DCs) (wild-type and MyD88-deficient DCs, LPS 10 ng/ml) is on record as “abolished”. Besides, the “inhibition of PKR phosphorylation induced by CpG” value with PKR (CpG 10 μM) is on record as “not CpG”. The “inhibition of PKR phosphorylation induced by LPS” value in the test on PKR (LPS 10 ng/ml) is “inhibited”. Also, the “inhibition of LPS-induced NF-κB activation” value in the test on NF-κB (1 hour pretreatment, LPS 10 ng/ml 5 hours, TIRAP peptide 50 μM) is recorded as “potently inhibited”. In addition, the “inhibition of CpG-induced NF-κB activation” value with NF-κB (CpG 10 μM 5 hours) is listed as “did not inhibit”.
